Reference: PMC5816602, “Optimized peptide based inhibitors targeting the dihydrofolate reductase pathway in cancer” (Scientific Reports, 2018)
In brackets after ≈: the same amount, converted by molar mass. Where two headings read alike, the source gives them in different places. Residues, ends and D or L forms follow the SMILES beside them.

How the values were obtained:
hDHFR [1] = molecular target: T1, hDHFR (Homo sapiens, UniProt P00374); assay: In vitro DHFR inhibition assay (DHFR assay kit, absorbance at 340 nm); type: biochemical
T1 construct: purchased Sigma CS0340
T1 sequence (P00374 1-187): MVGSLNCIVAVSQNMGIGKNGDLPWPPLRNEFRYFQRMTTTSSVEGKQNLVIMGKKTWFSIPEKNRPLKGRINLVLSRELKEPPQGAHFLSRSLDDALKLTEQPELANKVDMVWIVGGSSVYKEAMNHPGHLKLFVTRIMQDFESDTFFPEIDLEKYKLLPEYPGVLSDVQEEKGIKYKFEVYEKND
Description: The activity of the designed peptides against hDHFR was evaluated by measuring the conversion of dihydrofolic acid to tetrahydrofolic acid in the presence of the test peptide using […].
The dihydrofolate reductase inhibition assay was performed using DHFR assay kit (Sigma product code CS0340) according to the reported protocol. All the dilutions were made in assay buffer, pH 7.5. 10 mM stock solutions of dihydrofolic acid and NADPH in assay buffer were prepared. Stock solutions of the test peptides with different concentrations were prepared in DMSO, and an amount of 20 μL of each was taken to attain final concentration of 10^−9, 10^−8, 10^−7, 10^−6, 10^−5, and 10^−4 M in the respective wells of 96-well plate containing assay buffer. An amount of 0.1 unit of DHFR as supplied in the kit was diluted, and an amount of 20 μL of its 3 × 10^−3 unit was used in each reaction. Each well of the 96-well plate was charged with 157.8 μL of assay buffer. […] Percentage inhibition of enzymatic activity was calculated after nullifying the effects of NADPH, folate, and solvent. IC50 was calculated by plotting a graph between percentage inhibition and the corresponding concentration of the peptide.

A549 cells = settings: 48 hrs, MTT; for effect on cell viability of A549 cells: increasing concentrations
Description: Cell viability was measured using 3-(4,5-Dimethylthiazol- 2-yl)-2,5- Diphenyltetrazolium Bromide (MTT) assay. […] Following that, 20 µL of 5 mg/ml of MTT reagent was added in a total volume of 200 µl and incubated for 2 hours. The culture media was removed and the formazan crystals so formed were dissolved in 200 µl of dimethyl sulfoxide (DMSO). Absorbance was measured at 570 nm (with 660 nm reference wavelength) using Tecan plate reader (Infinite M200 Pro). Each individual experiment was repeated at least thrice. Relative cell viability was expressed as a percentage relative to untreated control cells.

hDHFR [2] = molecular target: T1, hDHFR; assay: Isothermal titration calorimetry (ITC); type: binding; settings: Table 2, read-out: Ka (converted)
Text: The binding of peptide 2 with hDHFR was further determined using isothermal titration calorimetry (ITC). ITC is considered as one of the most precise techniques to measure the affinity between a macromolecule and a small molecule. Since it measures the heat absorbed or released during complexation, it allows simultaneous determination of all binding parameters with respect to the binding constant (K), enthalpy (ΔH), and entropy (ΔS) in a single experiment. The solution of peptide 2 (in the syringe) was injected into the DHFR enzyme solution taken in the sample cell. In one experiment, 20 consecutive injections of 2 μL of 250 μM peptide were given to the sample cell. Upon each titration, the amount of heat released or absorbed was measured and used to determine the association constant (Ka), binding enthalpy (ΔH), and entropy (ΔS).

[3] = six concentrations 10^−4 to 10^−9 M, assay buffer pH 7.5, read-out: IC50 against hDHFR

IC50 (hDHFR [1]; [3]) | SMILES | IC50 (hDHFR [1]) | further results
– | CSCC[C@H](NC(=O)[C@@H](N)Cc1ccc(O)cc1)C(=O)N[C@@H](CO)C(=O)N[C@@H](CC(C)C)C(=O)O [Peptide 5, Tyr-Met-Ser-Leu] (H-YMSL-OH; N-terminus assumed) | > 100 µM | –
> 100 µM | CSCC[C@H](NC(=O)[C@@H](N)Cc1ccccc1)C(=O)N[C@@H](Cc1ccc(O)cc1)C(=O)N[C@@H](CC(C)C)C(=O)NCC(=O)O [Peptide 8, Phe-Met-Tyr-Leu-Gly] (H-FMYLG-OH) | – | –
– | CSCC[C@H](NC(=O)[C@@H](N)Cc1ccc(O)cc1)C(=O)N[C@@H](Cc1ccccc1)C(=O)N[C@@H](CO)C(=O)N[C@@H](CC(C)C)C(=O)O [Peptide 12, Tyr-Met-Phe-Ser-Leu] (H-YMFSL-OH) | > 90 µM | –
8 µM | CSCC[C@H](N)C(=O)N[C@@H](Cc1ccc(O)cc1)C(=O)N[C@@H](CO)C(=O)N[C@@H](CC(C)C)C(=O)O [Peptide 6, Met-Tyr-Ser-Leu] (H-MYSL-OH; N-terminus assumed) | – | –
5.6 µM | CSCC[C@H](NC(=O)[C@H](Cc1ccc(O)cc1)NC(=O)[C@@H](N)Cc1ccccc1)C(=O)NCC(=O)O [Peptide 3, Phe-Tyr-Met-Gly] (H-FYMG-OH; N-terminus assumed) | – | effect on cell viability of A549 cells (A549 cells): did not affect their cell viability
– | CSCC[C@H](NC(=O)[C@H](Cc1ccccc1)NC(=O)[C@H](CO)NC(=O)[C@@H](N)Cc1ccc(O)cc1)C(=O)N[C@@H](CC(C)C)C(=O)O [Peptide 11, Tyr-Ser-Phe-Met-Leu] (H-YSFML-OH) | 0.08 µM | –
– | CSCC[C@H](NC(=O)[C@H](Cc1ccccc1)NC(=O)[C@@H](N)Cc1ccc(O)cc1)C(=O)N[C@@H](CC(C)C)C(=O)O [Peptide 1, Tyr-Phe-Met-Leu] (H-YFML-OH; N-terminus assumed) | > 100 µM | –
> 100 µM | CSCC[C@H](N)C(=O)N[C@@H](Cc1ccccc1)C(=O)N[C@@H](Cc1ccc(O)cc1)C(=O)NCC(=O)N[C@@H](CC(C)C)C(=O)O [Peptide 10, Met-Phe-Tyr-Gly-Leu] (H-MFYGL-OH) | – | –
> 90 µM | CSCC[C@H](N)C(=O)N[C@@H](Cc1ccccc1)C(=O)N[C@@H](Cc1ccc(O)cc1)C(=O)NCC(=O)O [Peptide 4, Met-Phe-Tyr-Gly] (H-MFYG-OH; N-terminus assumed) | – | effect on cell viability of A549 cells (A549 cells): did not affect their cell viability
– | CSCC[C@H](NC(=O)[C@H](Cc1ccc(O)cc1)NC(=O)[C@@H](N)Cc1ccccc1)C(=O)NCC(=O)N[C@@H](CC(C)C)C(=O)O [Peptide 9, Phe-Tyr-Met-Gly-Leu] (H-FYMGL-OH) | > 80 µM | –
– | CSCC[C@H](NC(=O)[C@H](Cc1ccccc1)NC(=O)[C@@H](N)Cc1ccc(O)cc1)C(=O)N[C@@H](CC(C)C)C(=O)NCC(=O)O [Peptide 7, Tyr-Phe-Met-Leu-Gly] (H-YFMLG-OH) | > 100 µM | –

SMILES | IC50 (hDHFR [1]; [3]) | IC50 (hDHFR [1]) | further results
CSCC[C@H](NC(=O)[C@@H](N)Cc1ccccc1)C(=O)N[C@@H](Cc1ccc(O)cc1)C(=O)N[C@@H](CC(C)C)C(=O)O [Peptide 2, Phe-Met-Tyr-Leu] (H-FMYL-OH) | 0.13 µM | – | IC50 in A549 cells (A549 cells): 47 µg/mL (≈ 82.1 µM); IC50 (A549 cells; read-out: IC50 in A549 cells): 82 µM; Kd (hDHFR [2]): 0.909 µM
